# Source: patent US8883167B2, “Ethanol extract of Antrodia camphorata for inducing apoptosis and preparation method thereof” (Kaohsiung Medical University, priority 2009, dated 2014)
# System: HL 60 cells
# Assay: MTT cytotoxicity / antiproliferative assay on HL 60 cells
# Format: cell-based
# Details: Homo sapiens, Embodiment 1, 24 hours, read-out: 50% inhibition concentration (IC50) on HL 60 cells by MTT assay
# Procedure: Human leukemia HL 60 cell line was purchased from American Type Culture Collection (ATCC, Manassas, Va.) and incubated in RPMI 1640 medium supplemented with 10% fetal calf serum, 2 mM glutamine, 100 units/ml penicillin and 100 μg/ml streptomycin at 37° C. in a humidified atmosphere of 5% carbon dioxide.
# Cell viability was determined by the trypan blue dye exclusion and cytotoxicity was assessed by MTT assay. First, 1×10^5 HL 60 cells were plated in 96-well plates and treated with different concentrations of EEAC dissolved in dimethyl sulfoxide (DMSO) at the concentrations of 0 to 150 μg/ml for 24 hours. Death cells then were stained with trypan blue, and the survival cells were calculated with hemocytometer. In MTT assay, 1.2 mg/ml MTT was added in each well, which was incubated for 2 hours to form […], formazan. Formazan was dissolved in DMSO, and absorbance was detected at a wavelength of 570 nm.
smiles,measurement,value
C=C(CC[C@@H](C)C1CCC2C3=C(C(=O)CC21C)C1(C)CCC(=O)[C@@H](C)C1CC3=O)C(C)C(=O)O (stereo partly shown) [zhankuic acid A],IC50,5.45 µg/mL
